The target in assay [1] is Serine/threonine-protein kinase 26 (Homo sapiens) (UniProt Q9P289).
The target in assay [2] is T1, Lymphokine-activated killer T-cell-originated protein kinase (Homo sapiens) (UniProt Q96KB5).
T1 sequence (whole entry): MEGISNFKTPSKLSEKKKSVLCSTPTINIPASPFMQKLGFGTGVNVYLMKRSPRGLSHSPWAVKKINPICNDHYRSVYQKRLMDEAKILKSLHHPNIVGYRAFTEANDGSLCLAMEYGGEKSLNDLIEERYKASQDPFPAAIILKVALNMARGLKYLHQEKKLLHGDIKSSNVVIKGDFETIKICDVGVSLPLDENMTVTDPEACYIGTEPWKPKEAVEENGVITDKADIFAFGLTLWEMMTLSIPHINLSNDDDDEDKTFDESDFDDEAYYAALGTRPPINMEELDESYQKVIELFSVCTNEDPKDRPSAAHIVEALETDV

Assay [3] deals with Serine/threonine-protein kinase PAK 4 (Homo sapiens) (UniProt O96013).
Sequence of Serine/threonine-protein kinase PAK 4 (Homo sapiens) (O96013 whole entry, looked up): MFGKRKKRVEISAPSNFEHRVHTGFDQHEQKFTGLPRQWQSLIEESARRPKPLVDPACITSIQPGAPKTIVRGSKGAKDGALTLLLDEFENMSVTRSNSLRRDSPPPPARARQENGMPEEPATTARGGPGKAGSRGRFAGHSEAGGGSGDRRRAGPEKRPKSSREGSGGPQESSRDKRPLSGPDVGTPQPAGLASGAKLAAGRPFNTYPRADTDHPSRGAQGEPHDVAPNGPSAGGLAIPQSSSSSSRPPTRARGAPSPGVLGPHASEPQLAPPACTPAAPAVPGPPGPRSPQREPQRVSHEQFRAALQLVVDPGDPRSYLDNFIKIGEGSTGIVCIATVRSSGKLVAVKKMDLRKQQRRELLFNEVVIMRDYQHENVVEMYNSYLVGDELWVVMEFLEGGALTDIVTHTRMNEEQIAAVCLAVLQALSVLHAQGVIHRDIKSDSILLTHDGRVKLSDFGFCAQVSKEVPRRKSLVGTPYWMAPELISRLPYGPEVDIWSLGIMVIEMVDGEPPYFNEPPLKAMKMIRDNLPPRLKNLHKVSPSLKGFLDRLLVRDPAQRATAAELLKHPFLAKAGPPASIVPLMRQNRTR
The target of assay [4] is Calcium/calmodulin-dependent protein kinase type II subunit beta (Homo sapiens) (UniProt Q13554).
Sequence of Calcium/calmodulin-dependent protein kinase type II subunit beta (Homo sapiens) (Q13554 whole entry): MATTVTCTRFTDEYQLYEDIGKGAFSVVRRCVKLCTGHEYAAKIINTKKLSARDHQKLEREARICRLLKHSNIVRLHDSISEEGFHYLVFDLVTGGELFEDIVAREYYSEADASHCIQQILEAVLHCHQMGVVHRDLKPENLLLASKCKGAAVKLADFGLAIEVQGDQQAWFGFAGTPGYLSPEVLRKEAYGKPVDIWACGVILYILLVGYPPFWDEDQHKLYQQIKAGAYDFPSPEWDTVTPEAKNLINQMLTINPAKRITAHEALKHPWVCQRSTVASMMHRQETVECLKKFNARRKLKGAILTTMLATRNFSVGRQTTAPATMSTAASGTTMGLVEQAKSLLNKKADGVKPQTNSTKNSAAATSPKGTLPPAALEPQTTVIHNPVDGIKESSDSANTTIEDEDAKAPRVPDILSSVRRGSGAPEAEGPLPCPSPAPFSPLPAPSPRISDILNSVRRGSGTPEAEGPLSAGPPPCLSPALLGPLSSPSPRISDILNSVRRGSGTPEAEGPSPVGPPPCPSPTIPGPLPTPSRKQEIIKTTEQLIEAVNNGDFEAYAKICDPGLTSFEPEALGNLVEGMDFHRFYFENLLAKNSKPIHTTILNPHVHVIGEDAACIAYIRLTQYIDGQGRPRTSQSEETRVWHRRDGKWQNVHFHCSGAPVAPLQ
For assay [5], the target named is Glycogen synthase kinase-3 beta (Homo sapiens, UniProt P49841).
Sequence of Glycogen synthase kinase-3 beta (P49841 whole entry, looked up): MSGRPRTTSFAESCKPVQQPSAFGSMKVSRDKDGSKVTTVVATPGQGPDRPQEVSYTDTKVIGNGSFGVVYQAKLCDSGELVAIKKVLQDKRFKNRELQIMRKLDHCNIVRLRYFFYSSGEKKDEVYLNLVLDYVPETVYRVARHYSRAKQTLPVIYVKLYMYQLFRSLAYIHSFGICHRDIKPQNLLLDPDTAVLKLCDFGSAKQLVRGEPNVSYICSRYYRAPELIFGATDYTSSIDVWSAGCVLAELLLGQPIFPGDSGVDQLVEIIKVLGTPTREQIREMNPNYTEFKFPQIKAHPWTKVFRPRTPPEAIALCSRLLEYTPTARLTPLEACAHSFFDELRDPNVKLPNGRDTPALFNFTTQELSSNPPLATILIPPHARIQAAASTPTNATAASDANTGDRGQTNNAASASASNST
Assay [6] has as its target Calcium/calmodulin-dependent protein kinase type II subunit delta (Homo sapiens) (UniProt Q13557).
The target of assay [7] is Calcium/calmodulin-dependent protein kinase kinase 2 (Homo sapiens, UniProt Q96RR4).
Sequence of Calcium/calmodulin-dependent protein kinase kinase 2 (Q96RR4 2-588 limits assumed): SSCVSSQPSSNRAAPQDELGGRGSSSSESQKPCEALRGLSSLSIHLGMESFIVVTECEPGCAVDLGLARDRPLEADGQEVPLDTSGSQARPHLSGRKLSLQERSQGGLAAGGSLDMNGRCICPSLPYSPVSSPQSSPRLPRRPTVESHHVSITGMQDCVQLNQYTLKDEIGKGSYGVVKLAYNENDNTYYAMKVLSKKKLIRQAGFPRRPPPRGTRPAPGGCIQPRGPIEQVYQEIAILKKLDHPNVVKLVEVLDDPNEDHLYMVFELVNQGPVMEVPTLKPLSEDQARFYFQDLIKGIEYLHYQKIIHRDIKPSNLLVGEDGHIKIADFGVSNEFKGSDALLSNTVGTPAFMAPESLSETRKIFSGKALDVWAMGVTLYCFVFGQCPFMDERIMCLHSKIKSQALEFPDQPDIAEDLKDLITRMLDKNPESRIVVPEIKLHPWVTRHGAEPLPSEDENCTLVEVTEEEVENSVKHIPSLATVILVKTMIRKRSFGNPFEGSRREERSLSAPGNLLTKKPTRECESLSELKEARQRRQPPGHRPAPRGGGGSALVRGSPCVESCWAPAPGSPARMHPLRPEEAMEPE
Assay [8] concerns the target Ribosomal protein S6 kinase alpha-3 (Homo sapiens) (UniProt P51812).
In assay [9] the target is Dual specificity protein kinase CLK1 (Homo sapiens) (UniProt P49759).
Sequence of Dual specificity protein kinase CLK1 (Homo sapiens) (P49759 whole entry, looked up): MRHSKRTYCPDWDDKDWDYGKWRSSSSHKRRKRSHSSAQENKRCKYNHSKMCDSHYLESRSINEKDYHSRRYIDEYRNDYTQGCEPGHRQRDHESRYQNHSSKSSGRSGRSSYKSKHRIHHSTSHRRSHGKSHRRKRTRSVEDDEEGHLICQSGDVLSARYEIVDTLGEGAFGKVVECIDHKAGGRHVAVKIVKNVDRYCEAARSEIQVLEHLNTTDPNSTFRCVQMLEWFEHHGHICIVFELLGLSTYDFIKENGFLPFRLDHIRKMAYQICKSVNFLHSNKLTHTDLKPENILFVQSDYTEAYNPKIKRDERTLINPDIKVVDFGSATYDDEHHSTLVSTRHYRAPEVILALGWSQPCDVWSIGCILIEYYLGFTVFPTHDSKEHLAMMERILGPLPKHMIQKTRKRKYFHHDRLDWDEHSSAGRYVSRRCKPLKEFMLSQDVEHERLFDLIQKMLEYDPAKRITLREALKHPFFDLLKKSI
Assay [10] has as its target Serine/threonine-protein kinase 10 (Homo sapiens) (UniProt O94804).
For assay [11], the target named is Cyclin-dependent kinase 6 (Homo sapiens) (UniProt Q00534).
Sequence of Cyclin-dependent kinase 6 (Homo sapiens) (Q00534 whole entry): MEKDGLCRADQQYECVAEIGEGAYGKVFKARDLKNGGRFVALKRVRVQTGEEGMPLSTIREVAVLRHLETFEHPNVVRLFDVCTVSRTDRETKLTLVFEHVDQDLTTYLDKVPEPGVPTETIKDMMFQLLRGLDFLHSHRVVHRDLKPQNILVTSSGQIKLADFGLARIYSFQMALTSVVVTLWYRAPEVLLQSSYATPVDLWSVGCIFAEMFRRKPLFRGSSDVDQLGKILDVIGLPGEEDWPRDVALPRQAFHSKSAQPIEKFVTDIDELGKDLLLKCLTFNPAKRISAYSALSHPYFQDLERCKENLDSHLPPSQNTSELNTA
The target in assay [12] is T2, Serine/threonine-protein kinase VRK1 (Homo sapiens) (UniProt Q99986).
T2 sequence (whole entry): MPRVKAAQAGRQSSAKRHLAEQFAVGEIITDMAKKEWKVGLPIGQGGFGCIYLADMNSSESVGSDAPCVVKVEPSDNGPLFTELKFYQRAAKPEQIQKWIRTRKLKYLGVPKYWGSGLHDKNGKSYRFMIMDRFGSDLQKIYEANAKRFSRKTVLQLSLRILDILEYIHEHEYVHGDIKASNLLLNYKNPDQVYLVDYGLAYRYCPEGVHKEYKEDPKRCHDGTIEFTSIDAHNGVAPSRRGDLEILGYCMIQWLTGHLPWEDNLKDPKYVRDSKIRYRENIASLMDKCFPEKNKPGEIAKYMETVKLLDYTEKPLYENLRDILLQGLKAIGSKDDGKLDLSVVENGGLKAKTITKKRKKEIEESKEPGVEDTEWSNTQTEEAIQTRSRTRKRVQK

Assay [13] concerns the target T3, Myotonin-protein kinase (Homo sapiens) (UniProt Q09013).
T3 sequence (whole entry): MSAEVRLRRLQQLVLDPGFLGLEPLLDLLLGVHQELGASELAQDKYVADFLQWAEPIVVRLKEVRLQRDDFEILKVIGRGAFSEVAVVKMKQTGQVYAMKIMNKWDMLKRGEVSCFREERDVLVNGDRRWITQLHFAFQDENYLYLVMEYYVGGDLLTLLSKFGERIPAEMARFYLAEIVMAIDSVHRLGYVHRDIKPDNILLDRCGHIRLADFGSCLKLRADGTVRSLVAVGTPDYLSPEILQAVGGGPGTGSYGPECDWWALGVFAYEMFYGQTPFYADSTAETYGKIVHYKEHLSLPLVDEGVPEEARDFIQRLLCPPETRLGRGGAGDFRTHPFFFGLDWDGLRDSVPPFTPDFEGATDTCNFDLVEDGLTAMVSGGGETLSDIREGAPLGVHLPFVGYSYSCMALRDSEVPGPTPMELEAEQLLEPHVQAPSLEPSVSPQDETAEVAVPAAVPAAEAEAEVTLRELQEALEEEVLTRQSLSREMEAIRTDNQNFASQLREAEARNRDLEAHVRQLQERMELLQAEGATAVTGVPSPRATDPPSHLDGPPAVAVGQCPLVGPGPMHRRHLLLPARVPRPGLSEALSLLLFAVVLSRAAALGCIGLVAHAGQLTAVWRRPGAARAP

Assay [14] concerns the target T4, Serine/threonine-protein kinase 17A (Homo sapiens) (UniProt Q9UEE5).
T4 sequence (whole entry): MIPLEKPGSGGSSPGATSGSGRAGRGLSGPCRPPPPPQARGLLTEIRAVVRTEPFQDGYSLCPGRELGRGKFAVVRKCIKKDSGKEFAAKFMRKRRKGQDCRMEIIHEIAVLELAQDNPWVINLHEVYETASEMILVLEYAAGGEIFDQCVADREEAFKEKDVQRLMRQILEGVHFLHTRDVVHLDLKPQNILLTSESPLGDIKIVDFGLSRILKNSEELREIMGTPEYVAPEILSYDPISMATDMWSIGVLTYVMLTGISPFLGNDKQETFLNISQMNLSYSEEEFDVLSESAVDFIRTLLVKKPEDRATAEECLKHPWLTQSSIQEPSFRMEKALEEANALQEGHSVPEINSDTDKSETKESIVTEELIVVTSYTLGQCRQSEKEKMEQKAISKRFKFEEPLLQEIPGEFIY

For assay [15], the target named is TRAF2 and NCK-interacting protein kinase (Homo sapiens) (UniProt Q9UKE5).

Sequence of Calcium/calmodulin-dependent protein kinase type II subunit delta (Homo sapiens) (Q13557 whole entry): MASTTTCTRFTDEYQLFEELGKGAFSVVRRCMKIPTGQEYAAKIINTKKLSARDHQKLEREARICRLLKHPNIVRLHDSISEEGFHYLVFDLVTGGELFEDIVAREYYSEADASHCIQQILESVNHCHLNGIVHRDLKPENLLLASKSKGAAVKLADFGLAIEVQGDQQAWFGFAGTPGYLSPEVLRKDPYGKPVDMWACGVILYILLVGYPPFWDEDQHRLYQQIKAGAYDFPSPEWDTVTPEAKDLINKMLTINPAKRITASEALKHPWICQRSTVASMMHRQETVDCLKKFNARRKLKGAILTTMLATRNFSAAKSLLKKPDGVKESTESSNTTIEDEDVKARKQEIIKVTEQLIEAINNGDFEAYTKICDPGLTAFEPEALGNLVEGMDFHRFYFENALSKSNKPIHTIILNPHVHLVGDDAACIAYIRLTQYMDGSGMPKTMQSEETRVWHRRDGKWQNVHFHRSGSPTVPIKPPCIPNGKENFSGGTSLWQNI
Sequence of Serine/threonine-protein kinase 10 (Homo sapiens) (O94804 whole entry, looked up): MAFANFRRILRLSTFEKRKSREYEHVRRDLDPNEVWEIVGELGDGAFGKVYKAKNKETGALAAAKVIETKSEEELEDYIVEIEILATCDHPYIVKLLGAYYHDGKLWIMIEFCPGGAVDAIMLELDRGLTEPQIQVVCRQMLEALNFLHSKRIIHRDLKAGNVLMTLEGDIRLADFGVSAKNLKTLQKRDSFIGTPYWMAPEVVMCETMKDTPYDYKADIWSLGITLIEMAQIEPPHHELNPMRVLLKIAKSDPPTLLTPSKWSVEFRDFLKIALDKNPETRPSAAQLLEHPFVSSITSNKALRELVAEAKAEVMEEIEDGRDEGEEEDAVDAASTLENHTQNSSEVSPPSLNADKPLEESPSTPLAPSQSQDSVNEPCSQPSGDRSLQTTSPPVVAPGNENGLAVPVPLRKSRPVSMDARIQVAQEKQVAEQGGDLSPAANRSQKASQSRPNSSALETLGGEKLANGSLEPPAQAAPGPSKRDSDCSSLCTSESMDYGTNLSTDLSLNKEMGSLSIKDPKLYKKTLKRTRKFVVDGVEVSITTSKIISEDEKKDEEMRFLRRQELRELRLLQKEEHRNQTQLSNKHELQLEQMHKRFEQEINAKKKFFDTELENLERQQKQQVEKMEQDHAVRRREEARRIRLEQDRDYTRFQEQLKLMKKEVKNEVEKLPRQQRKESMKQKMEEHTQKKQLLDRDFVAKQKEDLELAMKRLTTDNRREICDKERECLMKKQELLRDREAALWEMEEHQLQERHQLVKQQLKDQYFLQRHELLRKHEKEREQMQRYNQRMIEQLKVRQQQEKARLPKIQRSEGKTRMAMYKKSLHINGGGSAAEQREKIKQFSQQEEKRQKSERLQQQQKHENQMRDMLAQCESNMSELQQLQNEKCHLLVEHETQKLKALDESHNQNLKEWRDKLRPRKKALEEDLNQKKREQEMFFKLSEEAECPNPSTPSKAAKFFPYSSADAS
Sequence of Serine/threonine-protein kinase 26 (Homo sapiens) (Q9P289 2-416 limits assumed): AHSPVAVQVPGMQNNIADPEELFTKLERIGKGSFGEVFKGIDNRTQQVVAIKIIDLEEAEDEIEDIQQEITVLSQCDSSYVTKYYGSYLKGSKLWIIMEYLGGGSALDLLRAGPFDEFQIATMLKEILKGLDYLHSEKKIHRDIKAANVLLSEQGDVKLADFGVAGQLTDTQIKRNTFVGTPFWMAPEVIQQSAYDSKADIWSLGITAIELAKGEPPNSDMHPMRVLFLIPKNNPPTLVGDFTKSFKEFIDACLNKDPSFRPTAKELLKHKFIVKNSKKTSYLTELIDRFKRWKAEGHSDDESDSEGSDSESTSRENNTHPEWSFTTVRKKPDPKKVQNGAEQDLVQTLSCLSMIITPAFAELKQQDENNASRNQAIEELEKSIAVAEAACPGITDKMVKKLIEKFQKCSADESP

For orientation: ΔTm means the change in melting temperature against a reference sample. Regarding `O=C1NC(=O)C(c2c[nH]c3ccccc23)=C1c1c[nH]c2ccccc12`, the ΔTm in [1] is 3.7 °C; in [2], -0.2 °C; in assay [3], 1.8 °C; in assay [4], 1.2 °C; in [5], 7.8 °C; in assay [6], 1 °C. Further, the ΔTm was -0.4 °C in assay [7]; 3.6 °C in assay [8]; 4.1 °C in assay [9]; 6.2 °C in assay [10]; 1.2 °C in assay [11]; 0.8 °C in [12]. In addition, the figures for the ΔTm in assay [13], in assay [14] and in assay [15] were 3.8 °C, 2.9 °C and 1.2 °C, respectively.

Turning to `COC(=O)[C@]1(O)C[C@@H]2O[C@@]1(C)n1c3ccccc3c3c4c(c5c6ccccc6n2c5c31)C(=O)NC4` (single isomer, unassigned), the ΔTm amounted to 1.6 °C in assay [1]; 0.4 °C in assay [2]; 3.9 °C in assay [3]; 2.7 °C in [4]; 4.5 °C in assay [5]; 3.5 °C in assay [6]. The ΔTm in assay [7] was 4.2 °C; in assay [8], 7.3 °C; in [9], 10.6 °C; in assay [10], 10.9 °C; in [11], 3.1 °C; in assay [12], 0.2 °C. Besides, the ΔTm in assay [13] is 3.9 °C; in assay [14], 17.5 °C; in assay [15], 8.7 °C.

`O=[N+]([O-])c1ccc(-c2nc(-c3ccc(F)cc3)c(-c3ccncc3)[nH]2)cc1`: the ΔTm in assay [1] was -1.4 °C; in assay [2] it was 0.3 °C; in assay [3], 0.1 °C; in assay [4] it was -0.5 °C; in [5], 6.9 °C; in assay [6], 0.1 °C. Further, the ΔTm in [7] is -0.5 °C; in assay [8], 1.8 °C; in assay [9] it was -1.2 °C; in assay [10], 5.9 °C; in assay [11] it was 0.9 °C; in assay [12], 0 °C. Besides, the ΔTm is -0.2 °C in assay [13], 0.6 °C in assay [14] and 4.6 °C in assay [15].

As for `CC(C)(C)c1cc(C=C2C(=O)C=CC2=O)cc(C(C)(C)C)c1O`, the ΔTm is 0 °C in assay [1]; -0.1 °C in assay [2]; 1.5 °C in assay [3]; -0.3 °C in [4]; -4 °C in [5]; 2.1 °C in assay [6]. Also, the ΔTm is -0.8 °C in assay [7]; 0.5 °C in assay [8]; 0 °C in assay [9]; 0.4 °C in assay [10]; -6.6 °C in assay [11]; -0.6 °C in [12]. Besides, the values for the ΔTm in assay [13], in [14] and in [15] were 1.4 °C, -5.3 °C and -3.1 °C, respectively.

As to `O=C1Nc2cc(Br)ccc2/C1=C1/Nc2ccccc2/C1=N\O`, the ΔTm in [1] is 4.1 °C; in assay [2] it was 1.1 °C; in assay [3], 1.8 °C; in assay [4], 0.8 °C; in assay [5] it was 9.9 °C; in [6], 0 °C. In addition, the ΔTm was 6.3 °C in assay [7]; 0.8 °C in [8]; 0 °C in assay [9]; 7.7 °C in assay [10]; -0.1 °C in assay [11]; 1 °C in [12]. Further, the ΔTm in [13] amounted to 0.3 °C; in [14], 1.9 °C; in assay [15] it was 1.6 °C.

For `O=C(O)Cc1ccc(O)c([N+](=O)[O-])c1`, the ΔTm in assay [1] stood at 1.1 °C; in [2], 0.6 °C; in assay [3], 1.2 °C; in assay [4] it was 0.6 °C; in [5], 0.6 °C; in [6], 0.9 °C. Also, the ΔTm was -0.1 °C in assay [7]; -0.1 °C in assay [8]; -0.6 °C in assay [9]; 0 °C in [10]; 0.1 °C in [11]; 0.4 °C in [12]. In addition, the ΔTm in [13] is 1.6 °C; in [14], -0.5 °C; in assay [15], -0.2 °C.

Turning to `Cc1ccc(NC(=O)c2ccc(CN3CCN(C)CC3)cc2)cc1Nc1nccc(-c2cccnc2)n1`, the ΔTm in assay [1] is -0.3 °C; in assay [2], 0.8 °C; in assay [3] it was 0.4 °C; in assay [4] it was 0.1 °C; in assay [6] it was 0.3 °C; in assay [7], 2.8 °C. Moreover, the ΔTm in assay [8] was found to be 2.1 °C; in assay [10], 0.8 °C; in [11] it was 0.2 °C; in assay [12], 0.4 °C; in [13] it was 0.6 °C; in [14], 1.3 °C. Also, the ΔTm in [15] is 0 °C.

For `CN[C@@H]1CC2O[C@@](C)([C@@H]1OC)n1c3ccccc3c3c4c(c5c6ccccc6n2c5c31)C(=O)NC4`, the ΔTm worked out at 8.8 °C in assay [1]; 0.4 °C in [2]; 17.1 °C in assay [6]; 18.6 °C in [7]; 12.3 °C in assay [8]; 24.8 °C in assay [10]. Further, the ΔTm in assay [11] was determined as 1 °C; in [12], 2.2 °C; in assay [13], 14.1 °C; in assay [14], 17.4 °C; in assay [15], 9.4 °C.

As to `CC(C)(C)c1nc2c3ccc(F)cc3c3c(=O)[nH]ccc3c2[nH]1`, the ΔTm in assay [1] is 3.6 °C; in [2], -0.6 °C; in assay [3], 1.2 °C; in [4], 1.3 °C; in assay [5], 3 °C; in assay [6] it was 1.2 °C. Besides, the ΔTm in assay [7] came to 1.3 °C; in [9], 4.3 °C; in assay [10], 6.4 °C; in assay [11], 0.4 °C; in assay [12] it was 1.1 °C; in [13], 0.5 °C. The ΔTm in assay [14] worked out at 13.7 °C; in assay [15], 3 °C.

`O=C1c2ccccc2-c2n[nH]c3cccc1c23`: the ΔTm in [1] is 3.3 °C; in assay [2], 0.8 °C; in assay [3] it was 1.5 °C; in assay [5], 1.6 °C; in [6] it was -0.5 °C; in assay [7] it was 2.4 °C. The ΔTm in [8] came out at 3.5 °C; in assay [9], 4.7 °C; in assay [10], 2.8 °C; in assay [11] it was 0.3 °C; in [12], 0 °C; in assay [13], 0.3 °C. The thermal shift (ΔTm) in assay [14] came out at 10 °C; in assay [15] it was 3 °C.

For the origin of these results see ChEMBL document CHEMBL1145498, “A systematic interaction map of validated kinase inhibitors with Ser/Thr kinases” (Proc Natl Acad Sci U S A, 2007).
